Measurements as given in ChEMBL document CHEMBL4630903, “Data for DCP probe BI-2540” (2021).
Calls of active or inactive are those of the source. The rule behind the calls is not given here.

Tests used:
[1] = HIV1 reverse transcriptase picogreen fluorescence assay (enzymatic); set-up: species or system Human immunodeficiency virus 1
[2] = target: Alpha-1A adrenergic receptor (Homo sapiens) (UniProt P35348); experiment: ALPHA1AH_ANTAG Eurofins SafetyScreen44 (BI); conditions: filed as antagonist, Compound concentration 10.0 uM
[3] = target: Sodium-dependent serotonin transporter (Homo sapiens) (UniProt P31645); experiment: SLC6A4/H Eurofins SafetyScreen44 (BI); conditions: filed as antagonist, Compound concentration 10.0 uM
[4] = target: hERG (KCNH2) (Homo sapiens, UniProt Q12809); experiment: HERG_DOFETILIDE Eurofins SafetyScreen44 (BI); set-up: mode of action inhibitor; conditions: probe [3H] dofetilide, compound concentration 10 uM, read-out: % Ctrl
[5] = target: 5-hydroxytryptamine receptor 2A (Homo sapiens) (UniProt P28223); experiment: 5HT2AH_AGON Eurofins SafetyScreen44 (BI); conditions: filed as agonist, Compound concentration 10.0 uM
[6] = target: Beta-1 adrenergic receptor (Homo sapiens) (UniProt P08588); experiment: BETA1/HUM Eurofins SafetyScreen44 (BI); conditions: Compound concentration 10.0 uM
[7] = target: Cannabinoid receptor 2 (Homo sapiens) (UniProt P34972); experiment: CB2/PERIPH/H Eurofins SafetyScreen44 (BI); conditions: Compound concentration 10.0 uM
[8] = target: Glucocorticoid receptor (Homo sapiens) (UniProt P04150); experiment: GCORTICOID/H Eurofins SafetyScreen44 (BI); conditions: Compound concentration 10.0 uM
[9] = target: Androgen receptor (Homo sapiens) (UniProt P10275); experiment: ANDROGEN/H Eurofins SafetyScreen44 (BI); conditions: Compound concentration 10.0 uM
[10] = target: 5-hydroxytryptamine receptor 2B (Homo sapiens) (UniProt P41595); experiment: 5HT2B/H AG Eurofins SafetyScreen44 (BI); conditions: filed as agonist, Compound concentration 10.0 uM
[11] = target: Vasopressin V1a receptor (Homo sapiens) (UniProt P37288); experiment: V1A/HUM Eurofins SafetyScreen44 (BI); conditions: Compound concentration 10.0 uM
[12] = target: Potassium voltage-gated channel subfamily V member 1 (Rattus norvegicus) (UniProt P97557); experiment: K+/VOLT/RA Eurofins SafetyScreen44 (BI); conditions: Compound concentration 10.0 uM
Potassium voltage-gated channel subfamily V member 1 (Rattus norvegicus), sequence (P97557 whole entry): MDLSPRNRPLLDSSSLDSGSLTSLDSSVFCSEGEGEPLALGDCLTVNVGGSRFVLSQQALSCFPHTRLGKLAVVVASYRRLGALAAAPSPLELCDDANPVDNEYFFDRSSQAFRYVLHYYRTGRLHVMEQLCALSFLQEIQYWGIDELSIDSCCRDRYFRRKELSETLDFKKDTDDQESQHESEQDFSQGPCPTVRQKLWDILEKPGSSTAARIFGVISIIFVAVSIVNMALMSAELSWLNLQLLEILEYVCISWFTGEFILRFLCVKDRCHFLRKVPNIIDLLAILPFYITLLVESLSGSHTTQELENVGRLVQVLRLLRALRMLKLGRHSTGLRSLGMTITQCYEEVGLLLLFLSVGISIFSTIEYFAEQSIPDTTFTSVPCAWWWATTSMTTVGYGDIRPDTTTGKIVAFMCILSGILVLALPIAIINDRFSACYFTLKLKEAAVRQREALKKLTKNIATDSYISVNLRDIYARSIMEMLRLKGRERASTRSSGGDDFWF

[13] = target: Cholecystokinin receptor type A (Homo sapiens) (UniProt P32238); experiment: CCKA/H Eurofins SafetyScreen44 (BI); conditions: Compound concentration 10.0 uM
[14] = target: Muscarinic acetylcholine receptor M3 (Homo sapiens) (UniProt P20309); experiment: M3/H Eurofins SafetyScreen44 (BI); conditions: Compound concentration 10.0 uM
[15] = target: Glutamate receptor ionotropic, NMDA 2A (Rattus norvegicus) (UniProt Q00959); experiment: NMDA/R Eurofins SafetyScreen44 (BI); conditions: Compound concentration 10.0 uM
[16] = target: Histamine H2 receptor (Homo sapiens) (UniProt P25021); experiment: H2/APT/HS Eurofins SafetyScreen44 (BI); conditions: filed as antagonist, Compound concentration 10.0 uM
Histamine H2 receptor (Homo sapiens), sequence (P25021 whole entry): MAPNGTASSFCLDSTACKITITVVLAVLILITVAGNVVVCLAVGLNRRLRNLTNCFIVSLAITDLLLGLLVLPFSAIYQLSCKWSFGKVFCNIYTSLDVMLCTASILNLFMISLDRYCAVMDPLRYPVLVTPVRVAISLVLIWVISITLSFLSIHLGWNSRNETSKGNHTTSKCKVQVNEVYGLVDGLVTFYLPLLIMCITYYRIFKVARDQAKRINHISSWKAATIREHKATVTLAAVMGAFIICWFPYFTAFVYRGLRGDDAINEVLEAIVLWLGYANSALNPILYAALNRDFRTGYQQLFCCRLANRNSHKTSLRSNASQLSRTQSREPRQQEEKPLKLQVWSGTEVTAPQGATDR

[17] = target: Muscarinic acetylcholine receptor M2 (Homo sapiens) (UniProt P08172); experiment: M2/H Eurofins SafetyScreen44 (BI); conditions: filed as antagonist, Compound concentration 10.0 uM
Muscarinic acetylcholine receptor M2 (Homo sapiens), sequence (P08172 whole entry): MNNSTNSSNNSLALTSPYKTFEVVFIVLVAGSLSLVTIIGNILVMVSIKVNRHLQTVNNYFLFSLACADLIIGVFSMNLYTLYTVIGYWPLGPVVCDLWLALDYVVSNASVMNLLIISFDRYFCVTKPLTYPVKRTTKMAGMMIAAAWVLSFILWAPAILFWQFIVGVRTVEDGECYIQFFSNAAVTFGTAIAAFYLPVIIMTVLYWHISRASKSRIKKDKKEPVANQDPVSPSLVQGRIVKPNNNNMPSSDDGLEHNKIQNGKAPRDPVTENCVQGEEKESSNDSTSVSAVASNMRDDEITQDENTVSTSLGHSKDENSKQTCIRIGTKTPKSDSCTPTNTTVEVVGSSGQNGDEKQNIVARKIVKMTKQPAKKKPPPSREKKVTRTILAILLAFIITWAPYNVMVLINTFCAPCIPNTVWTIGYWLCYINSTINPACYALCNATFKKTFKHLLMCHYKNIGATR

[18] = target: Beta-2 adrenergic receptor (Homo sapiens) (UniProt P07550); experiment: BETA2/HUM Eurofins SafetyScreen44 (BI); conditions: filed as antagonist, Compound concentration 10.0 uM
[19] = target: Gamma-aminobutyric acid receptor subunit alpha-1 (Rattus norvegicus) (UniProt P62813); experiment: BZD/CENTR/R Eurofins SafetyScreen44 (BI); conditions: Compound concentration 10.0 uM
[20] = target: Muscarinic acetylcholine receptor M1 (Homo sapiens) (UniProt P11229); experiment: M1/H Eurofins SafetyScreen44 (BI); conditions: Compound concentration 10.0 uM
[21] = target: MAO-A (Rattus norvegicus, UniProt P21396); experiment: MAO-A_ANTAG Eurofins SafetyScreen44 (BI); set-up: mode of action antagonist; scale not given: the % may be the effect or the level left; conditions: compound concentration 10 uM, read-out: % Ctrl
[22] = target: Adenosine receptor A2a (Homo sapiens) (UniProt P29274); experiment: A2A/H Eurofins SafetyScreen44 (BI); conditions: filed as antagonist, Compound concentration 10.0 uM
[23] = target: 5-hydroxytryptamine receptor 1A (Homo sapiens) (UniProt P08908); experiment: 5HT1A/H Eurofins SafetyScreen44 (BI); conditions: Compound concentration 10.0 uM
[24] = target: Delta-type opioid receptor (Homo sapiens) (UniProt P41143); experiment: DELTA2/H Eurofins SafetyScreen44 (BI); conditions: Compound concentration 10.0 uM
[25] = target: Kappa-type opioid receptor (Homo sapiens) (UniProt P41145); experiment: KAPPA(KOP)_HU Eurofins SafetyScreen44 (BI); conditions: Compound concentration 10.0 uM
[26] = target: Prostaglandin G/H synthase 2 (Homo sapiens) (UniProt P35354); experiment: COX-2 Eurofins SafetyScreen44 (BI); conditions: Compound concentration 10.0 uM
[27] = target: 5-hydroxytryptamine receptor 3A (Homo sapiens) (UniProt P46098); experiment: 5HT3/H Eurofins SafetyScreen44 (BI); conditions: Compound concentration 10.0 uM
[28] = target: Alpha-2A adrenergic receptor (Homo sapiens) (UniProt P08913); experiment: ALPHA2A/HU Eurofins SafetyScreen44 (BI); conditions: Compound concentration 10.0 uM
[29] = target: Tyrosine-protein kinase Lck (Homo sapiens) (UniProt P06239); experiment: LCK_CE Eurofins SafetyScreen44 (BI); conditions: Compound concentration 10.0 uM
[30] = target: cGMP-inhibited 3',5'-cyclic phosphodiesterase 3A (Homo sapiens) (UniProt Q14432); experiment: PDE3A Eurofins SafetyScreen44 (BI); conditions: Compound concentration 10.0 uM
[31] = target: 5-hydroxytryptamine receptor 1B (Homo sapiens) (UniProt P28222); experiment: 5HT1B(H) Eurofins SafetyScreen44 (BI); conditions: filed as antagonist, Compound concentration 10.0 uM
[32] = target: Histamine H1 receptor (Homo sapiens) (UniProt P35367); experiment: H1/PYRIL/HS Eurofins SafetyScreen44 (BI); conditions: Compound concentration 10.0 uM
[33] = HIV viral replication assay (ELISA); assay type: cell-based; conditions: Human immunodeficiency virus 1, C8166
[34] = target: D(1A) dopamine receptor (Homo sapiens) (UniProt P21728); experiment: D1/H Eurofins SafetyScreen44 (BI); conditions: filed as antagonist, Compound concentration 10.0 uM
[35] = target: Sodium-dependent noradrenaline transporter (Homo sapiens) (UniProt P23975); experiment: NEUP/H Eurofins SafetyScreen44 (BI); conditions: Compound concentration 10.0 uM
Sodium-dependent noradrenaline transporter (Homo sapiens), sequence (P23975 whole entry): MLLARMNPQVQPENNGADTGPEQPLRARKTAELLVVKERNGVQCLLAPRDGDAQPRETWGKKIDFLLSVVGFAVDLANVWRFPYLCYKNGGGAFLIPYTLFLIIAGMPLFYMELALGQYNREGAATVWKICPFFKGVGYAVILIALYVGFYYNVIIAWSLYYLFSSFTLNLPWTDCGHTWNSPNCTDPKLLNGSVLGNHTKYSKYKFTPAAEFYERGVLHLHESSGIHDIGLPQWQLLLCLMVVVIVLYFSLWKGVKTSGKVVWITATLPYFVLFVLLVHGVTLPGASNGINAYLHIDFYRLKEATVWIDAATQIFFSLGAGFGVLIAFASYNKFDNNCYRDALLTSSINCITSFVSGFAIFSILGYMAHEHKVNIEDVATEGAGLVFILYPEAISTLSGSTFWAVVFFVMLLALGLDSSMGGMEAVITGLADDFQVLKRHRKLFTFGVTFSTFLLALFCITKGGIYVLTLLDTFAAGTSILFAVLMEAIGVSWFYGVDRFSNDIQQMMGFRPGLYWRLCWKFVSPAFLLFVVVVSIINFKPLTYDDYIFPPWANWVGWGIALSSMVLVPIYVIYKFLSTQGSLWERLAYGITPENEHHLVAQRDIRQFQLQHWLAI

[36] = target: Prostaglandin G/H synthase 1 (Homo sapiens) (UniProt P23219); experiment: COX-1 Eurofins SafetyScreen44 (BI); conditions: Compound concentration 10.0 uM
[37] = target: Sodium-dependent dopamine transporter (Homo sapiens) (UniProt Q01959); experiment: DATRANS/HUM Eurofins SafetyScreen44 (BI); conditions: Compound concentration 10.0 uM
[38] = target: Cannabinoid receptor 1 (Homo sapiens) (UniProt P21554); experiment: CB1(HU)_AGON Eurofins SafetyScreen44 (BI); conditions: filed as agonist; Compound concentration 10.0 uM
Cannabinoid receptor 1 (Homo sapiens), sequence (P21554 whole entry): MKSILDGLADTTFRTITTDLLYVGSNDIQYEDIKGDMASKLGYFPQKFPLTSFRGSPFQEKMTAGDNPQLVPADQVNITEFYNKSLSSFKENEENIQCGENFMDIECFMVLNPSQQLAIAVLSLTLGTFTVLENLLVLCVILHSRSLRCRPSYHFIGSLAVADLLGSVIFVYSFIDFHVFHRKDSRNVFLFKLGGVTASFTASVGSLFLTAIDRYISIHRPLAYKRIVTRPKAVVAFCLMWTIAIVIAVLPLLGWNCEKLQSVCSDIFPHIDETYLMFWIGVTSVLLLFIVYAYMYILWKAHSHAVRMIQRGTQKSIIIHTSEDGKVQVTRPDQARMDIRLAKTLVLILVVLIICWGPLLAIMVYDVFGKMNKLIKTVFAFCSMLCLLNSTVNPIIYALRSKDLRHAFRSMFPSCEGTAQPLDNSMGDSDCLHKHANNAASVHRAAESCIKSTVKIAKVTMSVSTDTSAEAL

[39] = target: 3',5'-cyclic-AMP phosphodiesterase 4D (Homo sapiens) (UniProt Q08499); experiment: PDE4D2 Eurofins SafetyScreen44 (BI); conditions: Compound concentration 10.0 uM
[40] = target: Mu-type opioid receptor (Homo sapiens) (UniProt P35372); experiment: MU/H Eurofins SafetyScreen44 (BI); conditions: Compound concentration 10.0 uM
[41] = target: Neuronal acetylcholine receptor; alpha4/beta2 (Homo sapiens) (UniProt P17787+P43681); experiment: N_NEURO_A4B2 Eurofins SafetyScreen44 (BI); assay type: protein-complex assay; conditions: filed as agonist, Compound concentration 10.0 uM
[42] = target: D(2) dopamine receptor (Homo sapiens) (UniProt P14416); experiment: D2SH_AGON Eurofins SafetyScreen44 (BI); conditions: filed as agonist, Compound concentration 10.0 uM
[43] = target: L-type Ca2+ channel (dihydropyridine site), Cav1.2 alpha-1C (Rattus norvegicus, UniProt P22002); experiment: CA+/DHPSI/R Eurofins SafetyScreen44 (BI); set-up: mode of action inhibitor; conditions: rat brain, probe [3H](+)PN200-110, compound concentration 10 uM, read-out: % Ctrl
L-type Ca2+ channel (dihydropyridine site), Cav1.2 alpha-1C, sequence (P22002 whole entry): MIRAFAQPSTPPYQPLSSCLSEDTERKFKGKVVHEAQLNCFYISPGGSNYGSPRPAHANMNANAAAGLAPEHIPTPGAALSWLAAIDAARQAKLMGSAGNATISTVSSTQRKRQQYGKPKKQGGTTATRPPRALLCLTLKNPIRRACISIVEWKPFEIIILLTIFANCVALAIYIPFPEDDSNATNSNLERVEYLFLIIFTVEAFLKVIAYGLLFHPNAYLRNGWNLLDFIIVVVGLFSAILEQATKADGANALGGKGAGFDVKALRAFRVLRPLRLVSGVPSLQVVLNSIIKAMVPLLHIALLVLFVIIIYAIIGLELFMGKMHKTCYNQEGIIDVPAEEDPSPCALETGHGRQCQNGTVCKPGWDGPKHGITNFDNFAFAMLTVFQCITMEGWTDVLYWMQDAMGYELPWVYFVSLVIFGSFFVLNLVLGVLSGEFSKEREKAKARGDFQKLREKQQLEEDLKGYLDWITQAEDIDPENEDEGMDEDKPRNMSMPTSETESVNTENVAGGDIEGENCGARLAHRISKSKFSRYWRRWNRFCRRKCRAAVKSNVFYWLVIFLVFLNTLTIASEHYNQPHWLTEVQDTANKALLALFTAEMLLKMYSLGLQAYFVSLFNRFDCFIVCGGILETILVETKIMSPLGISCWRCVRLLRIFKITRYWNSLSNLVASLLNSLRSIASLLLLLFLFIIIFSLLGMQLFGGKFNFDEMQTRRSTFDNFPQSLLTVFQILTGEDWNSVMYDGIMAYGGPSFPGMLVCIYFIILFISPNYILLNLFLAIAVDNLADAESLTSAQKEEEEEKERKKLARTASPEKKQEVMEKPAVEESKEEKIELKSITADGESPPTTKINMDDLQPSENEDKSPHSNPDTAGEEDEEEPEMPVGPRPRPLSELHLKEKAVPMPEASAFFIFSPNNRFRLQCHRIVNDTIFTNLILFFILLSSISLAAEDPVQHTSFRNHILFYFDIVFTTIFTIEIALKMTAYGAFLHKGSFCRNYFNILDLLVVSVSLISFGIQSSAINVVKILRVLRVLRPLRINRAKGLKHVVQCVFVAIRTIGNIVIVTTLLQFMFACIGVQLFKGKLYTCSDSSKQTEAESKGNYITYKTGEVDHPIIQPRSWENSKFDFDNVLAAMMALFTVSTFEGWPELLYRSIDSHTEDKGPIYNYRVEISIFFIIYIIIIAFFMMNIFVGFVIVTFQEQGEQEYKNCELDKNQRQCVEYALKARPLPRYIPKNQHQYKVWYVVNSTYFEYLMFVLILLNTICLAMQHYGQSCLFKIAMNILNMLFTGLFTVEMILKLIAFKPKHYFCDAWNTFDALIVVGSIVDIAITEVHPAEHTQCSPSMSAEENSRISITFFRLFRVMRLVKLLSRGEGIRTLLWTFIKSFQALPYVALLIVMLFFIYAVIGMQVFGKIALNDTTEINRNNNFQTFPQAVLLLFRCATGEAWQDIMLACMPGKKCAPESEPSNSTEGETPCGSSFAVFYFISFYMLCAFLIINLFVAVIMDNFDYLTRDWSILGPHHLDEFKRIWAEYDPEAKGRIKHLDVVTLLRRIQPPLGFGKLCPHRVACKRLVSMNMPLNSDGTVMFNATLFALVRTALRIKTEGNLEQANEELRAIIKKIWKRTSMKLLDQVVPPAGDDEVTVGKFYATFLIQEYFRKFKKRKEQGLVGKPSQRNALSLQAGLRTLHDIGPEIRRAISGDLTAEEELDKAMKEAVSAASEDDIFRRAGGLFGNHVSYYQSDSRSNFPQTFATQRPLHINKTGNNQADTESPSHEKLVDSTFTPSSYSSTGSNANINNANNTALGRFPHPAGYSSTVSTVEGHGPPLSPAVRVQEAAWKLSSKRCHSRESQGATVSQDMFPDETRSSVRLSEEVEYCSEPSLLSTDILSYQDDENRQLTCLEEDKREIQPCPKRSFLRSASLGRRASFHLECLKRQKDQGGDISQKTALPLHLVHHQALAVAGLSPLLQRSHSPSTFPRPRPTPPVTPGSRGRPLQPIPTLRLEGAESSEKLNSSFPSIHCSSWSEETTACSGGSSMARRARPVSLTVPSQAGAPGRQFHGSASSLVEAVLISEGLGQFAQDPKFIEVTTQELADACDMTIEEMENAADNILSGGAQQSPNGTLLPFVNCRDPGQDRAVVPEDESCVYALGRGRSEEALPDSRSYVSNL

[44] = target: Angiotensin-converting enzyme (Homo sapiens) (UniProt P12821); experiment: ACE(HU_AMTCH400) Eurofins SafetyScreen44 (BI); conditions: Compound concentration 10.0 uM
[45] = HIV 1 luciferase assay; assay type: cell-based, Human immunodeficiency virus 1; conditions: c8166
[46] = target: Endothelin-1 receptor (Homo sapiens) (UniProt P25101); experiment: ETA/H Eurofins SafetyScreen44 (BI); conditions: Compound concentration 10.0 uM
Endothelin-1 receptor (Homo sapiens), sequence (P25101 whole entry): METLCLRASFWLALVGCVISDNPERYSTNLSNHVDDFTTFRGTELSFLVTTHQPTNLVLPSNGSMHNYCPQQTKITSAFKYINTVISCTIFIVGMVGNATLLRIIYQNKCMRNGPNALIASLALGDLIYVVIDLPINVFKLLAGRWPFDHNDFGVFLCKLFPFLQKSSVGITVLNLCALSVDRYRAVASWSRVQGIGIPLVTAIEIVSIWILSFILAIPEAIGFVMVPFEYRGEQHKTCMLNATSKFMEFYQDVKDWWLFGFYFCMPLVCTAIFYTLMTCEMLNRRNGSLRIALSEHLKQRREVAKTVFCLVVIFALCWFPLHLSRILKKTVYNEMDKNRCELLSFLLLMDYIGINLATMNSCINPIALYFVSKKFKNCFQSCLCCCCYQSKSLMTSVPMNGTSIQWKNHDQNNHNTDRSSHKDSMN

Q: With `CC(C)(C#Cc1ccc(NC(=O)COc2ccccc2C(=O)c2ccccc2)c(Cl)c1)C(=O)O` [BI 2439] as the compound, how does the IC50 [1] read?
A: The IC50 was 5050 nM (not active).

Q: What does the source list for `Cc1c(NC(=O)COc2ccc(Cl)cc2C(=O)c2cc(F)cc(C(F)(F)F)c2)ccc(C(=O)O)c1F` [BI 2540]?
A: residual activity [2]: 97%; residual activity [3]: 110%; activity at 10 µM [4]: 94% (not active); residual activity [5]: 110%; residual activity [6]: 101%; residual activity [7]: 100%; residual activity [8]: 103%; residual activity [9]: 105%; residual activity [10]: 103%; residual activity [11]: 107%; residual activity [12]: 103%; residual activity [13]: 108%; residual activity [14]: 101%; residual activity [15]: 87%; residual activity [16]: 111%; residual activity [17]: 111%; residual activity [18]: 96%; residual activity [19]: 127%; residual activity [20]: 113%; activity at 10 µM [21]: 104% (not active); residual activity [22]: 82%; residual activity [23]: 94%; residual activity [24]: 78%; residual activity [25]: 103%; residual activity [26]: 84%; residual activity [27]: 100%; residual activity [28]: 79%; residual activity [29]: 88%; residual activity [30]: 103%; residual activity [31]: 90%; residual activity [32]: 96%; IC50 [33]: 0.76 nM (active); residual activity [34]: 100%; IC50 [1]: 12 nM (active); residual activity [35]: 98%; residual activity [36]: 110%; residual activity [37]: 92%; residual activity [38]: 125%; residual activity [39]: 93%; residual activity [40]: 99%; residual activity [41]: 102%; residual activity [42]: 96%; activity at 10 µM [43]: 96% (not active); residual activity [44]: 110%; IC50 [45]: 2.6 nM (active); residual activity [46]: 113%
